From the supplement of paper PMC13380429

What was measured:
Conditions in all cases: 72 h
[1] = system: Caco-2; assay: cell viability relative to DMSO; higher = less toxic
[2] = system: Calu-3; assay: as above
[3] = system: HepG2; assay: as above
[4] = system: U2OS; assay: as above
[5] = system: Vero E6; assay: as above
[6] = system: Caco-2; assay: relative viability EC50 (midpoint between 100% and the lowest measured viability); higher = less toxic
[7] = system: Calu-3; assay: as above
[8] = system: HepG2; assay: as above
[9] = system: U2OS; assay: as above
[10] = system: Vero E6; assay: as above
[11] = system: Caco-2; assay: drug sensitivity score (DSS) for viability; higher = more toxic; extreme values may be limits of the assay
[12] = system: Calu-3; assay: as above
[13] = system: HepG2; assay: as above
[14] = system: U2OS; assay: as above
[15] = system: Vero E6; assay: as above

Row | Structure (SMILES) | cell viability ([1]; 1 nM) | cell viability ([1]; 10 nM) | cell viability ([1]; 100 nM) | cell viability ([1]; 1000 nM) | cell viability ([1]; 10000 nM) | cell viability ([2]; 1 nM) | cell viability ([2]; 10 nM) | cell viability ([2]; 100 nM) | cell viability ([2]; 1000 nM) | cell viability ([2]; 10000 nM) | cell viability ([3]; 1 nM) | cell viability ([3]; 10 nM) | cell viability ([3]; 100 nM) | cell viability ([3]; 1000 nM) | cell viability ([3]; 10000 nM) | cell viability ([4]; 1 nM) | cell viability ([4]; 10 nM) | cell viability ([4]; 100 nM) | cell viability ([4]; 1000 nM) | cell viability ([4]; 10000 nM) | cell viability ([5]; 1 nM) | cell viability ([5]; 10 nM) | cell viability ([5]; 100 nM) | cell viability ([5]; 1000 nM) | cell viability ([5]; 10000 nM) | relative viability EC50 [6] | relative viability EC50 [7] | relative viability EC50 [8] | relative viability EC50 [9] | relative viability EC50 [10] | drug sensitivity score [11] | drug sensitivity score [12] | drug sensitivity score [13] | drug sensitivity score [14] | drug sensitivity score [15]
1 | CCCN(CCC)S(=O)(=O)c1ccc(C(=O)O)cc1 [probenecid] | 95.8% | 97.6% | 88.8% | 104% | 93.3% | 88.3% | 106% | 102% | 118% | 91.3% | 105% | 91.6% | 97% | 95.4% | 109% | 97.5% | 97.5% | 95.2% | 99.1% | 95.9% | 102% | 104% | 103% | 99.3% | 99.6% | > 10 µM | > 10 µM | > 10 µM | > 10 µM | > 10 µM | 0 | 0 | 0 | 0 | 0
2 | O=c1c(O)c(-c2ccc(O)c(O)c2)oc2cc(O)cc(O)c12 [quercetin] | 104% | 93.6% | 100% | 87.6% | 79.5% | 98.8% | 100% | 92.4% | 92.8% | 80.5% | 94.1% | 95.8% | 99.2% | 99.1% | 84% | 99.1% | 97% | 98% | 97% | 96.1% | 99.3% | 99% | 95.9% | 101% | 99.3% | > 10 µM | > 10 µM | > 10 µM | > 10 µM | > 10 µM | 1.9 | 0.8 | 0.4 | 0 | 0
3 | Cc1nnc(C(=O)NC(C)(C)c2nc(C(=O)NCc3ccc(F)cc3)c(O)c(=O)n2C)o1 [raltegravir] | 102% | 104% | 94.4% | 94.7% | 99.7% | 104% | 99.3% | 99% | 107% | 104% | 100% | 102% | 97.6% | 118% | 90.3% | 104% | 95.9% | 100% | 97.5% | 100% | 101% | 99.3% | 95.7% | 97.5% | 94.4% | > 10 µM | > 10 µM | > 10 µM | > 10 µM | > 10 µM | 0 | 0 | 0 | 0 | 0
4 | CN(C)Cc1ccc(S(=O)(=O)n2ccc(/C=C/C(=O)NO)c2)cc1 [resminostat] | 99.6% | 101% | 103% | 98.4% | 12.4% | 102% | 96.3% | 92.9% | 86.2% | 27.9% | 110% | 110% | 94% | 69.2% | 7.9% | 95.2% | 105% | 97.9% | 88.1% | 5.5% | 106% | 103% | 101% | 82.1% | 2% | 3.03 µM | 1.77 µM | 1.38 µM | 2.14 µM | 1.81 µM | 5.1 | 6.2 | 9.1 | 7.2 | 8.4
5 | Cc1cc(OCC(=O)O)cc(C)c1Cc1ccc(O)c(C(C)C)c1 [sobetirome] | 102% | 95.7% | 92.1% | 94.7% | 90.5% | 102% | 96.6% | 105% | 98.7% | 101% | 100% | 103% | 96% | 96.2% | 85% | 97.5% | 99.9% | 99.5% | 99.5% | 100% | 102% | 99.3% | 87.9% | 96.4% | 85.3% | > 10 µM | > 10 µM | > 10 µM | > 10 µM | > 10 µM | 0 | 0 | 0.4 | 0 | 0.3
6 | Nc1ccc(S(=O)(=O)Nc2nccs2)cc1 [sulfathiazole] | 95.8% | 96.1% | 95.1% | 93.6% | 99% | 86.1% | 94.9% | 92.2% | 98% | 89.3% | 102% | 95% | 94.2% | 105% | 116% | 94.2% | 98.5% | 94.3% | 93.6% | 102% | 96.9% | 100% | 97.5% | 104% | 102% | > 10 µM | > 10 µM | > 10 µM | > 10 µM | > 10 µM | 0 | 0 | 0 | 0 | 0
7 | CCOCC(O)COc1ccc(NC(=O)CC[S+](C)C)cc1 (stereo not given) [suplatast] | 95.9% | 99% | 99.1% | 98.5% | 104% | 94.8% | 93.1% | 93.4% | 102% | 101% | 93.8% | 94.3% | 85% | 91.2% | 94.1% | 99.1% | 96.4% | 100% | 100% | 101% | 87.8% | 98.2% | 93.3% | 94.8% | 104% | > 10 µM | > 10 µM | > 10 µM | > 10 µM | > 10 µM | 0 | 0 | 0 | 0 | 0
